The text below walks through data of patent US12448363B2, “Kinase inhibitors” (Vidya Therapeutics, Inc., priority 2020, dated 2025).

SMILES strings stand for the structures.

The test system of assay [1] is BTK Activity in RAMOS B Cells. Briefly: Assay to determine BTK activity in RAMOS B cells (anti-IgM, FLIPR Calcium 6). The format is cell-based. The note with it: EC80 anti-IgM, FLIPR calcium read. Here is the method: On the day before assay, Ramos B cells were plated in plating medium (RPMI1640 medium containing 1% FBS and 1× pencillin-streptomycin). On the day of the assay, 2× dye solution was prepared following the manual of the FLIRP Calcium 6 Assay Kit: Dilute the dye with assay buffer (20 mM HEPES in 1×HBSS, pH7.4); Add probenecid to the final concentration of 5 mM; vortex vigorously for 1-2 minutes. Cells were collected by centrifuging, and the pellet was resuspended in plating medium. After counting, cells were resuspended at a density of 3×10^6/ml in plating medium. Equal volume of 2× dye solution was added to the cell suspension. Cells were then plated at 20 μl/well into a 384-well poly-D-lysine coated plate. Plate was centrifuged at 1000 rpm for 3 minutes and then incubated at 37° C. for 2 hours followed by an additional 15-minute incubation at 25° C. Compounds were prepared at 3× concentration in dilution buffer (20 mM HEPES and 0.1% BSA in 1×HBSS, pH 7.4). Serially diluted compound was transferred from source plate to a 384-well compound plate by using an Echo 550 (Labcyte). 20 μl/well compound dilution buffer was added to the compound plate and mixed on plate shaker for 2 mins. 4×EC80 of Anti-IgM (Jackson ImmunoResearch) was prepared in dilution buffer and 20 μl/well was added to a new 384-well compound plate. After 60 mins of incubation at 25° C. in the dark; cell plate, compound plate containing 4×EC80 of anti-IgM and FLIPR tips were placed into FLIPR (Molecular Devices). 10 ul/well of 4×EC80 anti-IgM was transferred to the cell plate by FLIPR. Plates were read for 160 sec with 1 sec interval.
With respect to Ramos activity, Table 9 lists activity as follows: • “A” denotes an IC50 of less than 10 nM; • “B” denotes an IC50 of from 10 nM to less than 100 nM; and • “C” denotes and IC50 of 100 nM or more.

In assay [2] the target is BTK (Homo sapiens, UniProt Q06187). Kind of assay: Assay to determine activity against BTK (EZ reader, FLPeptide). The format is biochemical. On the set-up: purchased Carna. The note with it: ATP (1 mM), BTK (2 nM), room temperature for 90 minutes. As to the method: Solutions of compounds (test or control) in DMSO were prepared at the desired concentrations, and serially diluted to 11 concentrations by 3-fold dilution in 384pp-plate using TECAN EVO200. 20 nL of stock were transferred to 384 plate using Echo550. DMSO was used as vehicle control.
BTK, sequence (Q06187 whole entry): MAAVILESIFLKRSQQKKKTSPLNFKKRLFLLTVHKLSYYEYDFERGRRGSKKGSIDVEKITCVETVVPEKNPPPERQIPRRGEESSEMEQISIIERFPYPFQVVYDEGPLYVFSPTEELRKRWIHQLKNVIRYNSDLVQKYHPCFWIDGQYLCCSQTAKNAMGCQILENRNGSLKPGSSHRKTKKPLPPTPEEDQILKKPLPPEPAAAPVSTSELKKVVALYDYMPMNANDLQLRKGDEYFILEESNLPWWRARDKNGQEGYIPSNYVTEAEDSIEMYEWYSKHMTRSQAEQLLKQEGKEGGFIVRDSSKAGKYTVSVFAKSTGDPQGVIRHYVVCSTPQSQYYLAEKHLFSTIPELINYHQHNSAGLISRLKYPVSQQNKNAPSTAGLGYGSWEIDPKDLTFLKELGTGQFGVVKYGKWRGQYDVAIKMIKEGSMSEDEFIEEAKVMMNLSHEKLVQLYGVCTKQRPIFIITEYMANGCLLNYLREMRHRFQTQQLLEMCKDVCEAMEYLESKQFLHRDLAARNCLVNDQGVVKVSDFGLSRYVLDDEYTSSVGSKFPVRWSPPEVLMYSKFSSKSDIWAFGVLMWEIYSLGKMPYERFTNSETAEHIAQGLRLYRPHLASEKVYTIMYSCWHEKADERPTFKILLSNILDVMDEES
Two separate solutions were prepared—an ATP solution containing MgCl2 (10 mM), Brij-35 (0.01%), DTT (2 mM), BSA (0.05%), EGTA (1 mM), HEPE (pH7.5) (50 mM), FLPeptide (6 uM) and ATP (4 mM); and a BTK solution containing MgCl2 (10 mM), Brij-35 (0.01%), DTT (2 mM), BSA (0.05%), EGTA (1 mM), HEPE (pH7.5) (50 mM) and BTK (2.67 nM). […] (Note the final volume of each well was 20 uL containing MgCl2 (10 mM), Brij-35 (0.01%), DTT (2 mM), BSA (0.05%), EGTA (1 mM), HEPE (pH7.5) (50 mM), FLPeptide (1.5 uM), ATP (1 mM) and BTK (2 nM).
The plates were incubated at room temperature for 90 minutes and then stopping buffer added (75 uL, containing 0.5 M EDTA) to terminate the reaction. Samples from each well were analyzed using EZ reader. The % remaining activity was calculated using read conversion ratio (CR) according to the equation: […]
XLFit (equation 201) was used to calculate IC50s by floating both bottom and top.
With respect to BTK activity, Table 4 lists activity as follows: • “A” denotes an IC50 of less than 10 nM, • “B” denotes an IC50 of from 10 nM to less than 100 nM; and • “C” denotes and IC50 of 100 nM or more.

Usually IC50 stands for the concentration that inhibits the measured activity by half. For the compound `C=CC(=O)N[C@H]1C[C@@H](O)CN(c2c(F)cc(C(N)=O)c3[nH]c(C)c(C)c23)C1` [Compound 37, 4-((3S,5R)-3-acrylamido-5-hydroxypiperidin-1-yl)-5-fluoro-2,3-dimethyl-1H-indole-7-carboxamide], the IC50 is not below 100 nM in assay [1] (Homo sapiens, Ramos) and 10 to 100 nM in assay [2].

Regarding `C=CC(=O)N1CCc2c(-c3c(F)cc(C(N)=O)c4[nH]c(C)cc34)cccc2C1C1CC1` (stereo not shown) [Compound 23, 4-(2-acryloyl-1-cyclopropyl-1,2,3,4-tetrahydroisoquinolin-5-yl)-5-fluoro-2-methyl-1H-indole-7-carboxamide], the IC50 in assay [1] (Homo sapiens, Ramos) lay in the range of 10 to 100 nM; in assay [2], 10 to 100 nM.

For the compound `C=CC(=O)N1CCCC(c2c(F)cc(C(N)=O)c3[nH]c(C)c(C(F)F)c23)C1` (stereo not shown) [Compound 14, 4-(1-acryloylpiperidin-3-yl)-3-(difluoromethyl)-5-fluoro-2-methyl-1H-indole-7-carboxamide], the IC50 was not below 100 nM in assay [1] (Homo sapiens, Ramos) and not below 100 nM in assay [2].

For `C=CC(=O)N1CCc2c(-c3c(F)cc(C(N)=O)c4[nH]c(C)c(Cl)c34)cccc2[C@H]1C` (single isomer, unassigned) [Compound 22b], the IC50 in assay [1] and in assay [2] was not below 100 nM throughout.

On to `C=CC(=O)N1C[C@H]2CCN(c3c(F)cc(C(N)=O)c4[nH]c(C)c(Cl)c34)C[C@@H]2C1` (racemic) [Compound 39, 4-(trans-2-acryloyloctahydro-5H-pyrrolo[3,4-c]pyridin-5-yl)-3-chloro-5-fluoro-2-methyl-1H-indole-7-carboxamide], for which the concentration for half-maximal inhibition (IC50) in assay [1] (Homo sapiens, Ramos) was not below 100 nM; in assay [2], not below 100 nM.

Turning to `CC#CC(=O)N1CCC[C@@H](c2c(F)cc(C(N)=O)c3[nH]c(C)c(Cl)c23)C1` [Compound 18, (S)-4-(1-(but-2-ynoyl)piperidin-3-yl)-3-chloro-5-fluoro-2-methyl-1H-indole-7-carboxamide], the IC50 in assay [1] (Homo sapiens, Ramos) was not below 100 nM; in assay [2], not below 100 nM.

With `C=CC(=O)N1CCc2c(cccc2-c2c(F)c(F)c(C(N)=O)c3[nH]c(C)c(F)c23)C1` [Compound 21d, 4-(2-acryloyl-1,2,3,4-tetrahydroisoquinolin-5-yl)-3,5,6-trifluoro-2-methyl-1H-indole-7-carboxamide], the half-maximal inhibitory concentration (IC50) in assay [1] (Homo sapiens, Ramos) was in the range of 10 to 100 nM; in assay [2] it was 10 to 100 nM.

On to `C=CC(=O)N1CCCC(c2c(F)c(F)c(C(N)=O)c3[nH]c(C)c(F)c23)C1` (stereo not shown) [Compound 13, 4-(1-acryloylpiperidin-3-yl)-3,5,6-trifluoro-2-methyl-1H-indole-7-carboxamide], for which the IC50 in assay [1] (Homo sapiens, Ramos) is less than 10 nM; in assay [2], less than 10 nM.

On to `C=CC(=O)N[C@H]1C[C@H](O)CN(c2c(F)cc(C(N)=O)c3[nH]c(C)c(C)c23)C1` [Compound 38, 4-((3S,5S)-3-acrylamido-5-hydroxypiperidin-1-yl)-5-fluoro-2,3-dimethyl-1H-indole-7-carboxamide], for which the 50% inhibitory concentration (IC50) in assay [1] (Homo sapiens, Ramos) was 10 to 100 nM; in assay [2], 10 to 100 nM.

Take `C=CC(=O)N1CCCC(c2c(F)cc(C(N)=O)c3[nH]c(C)c(Cl)c23)C1` (stereo not shown) [Compound 2, 4-(1-acryloylpiperidin-3-yl)-3-chloro-5-fluoro-2-methyl-1H-indole-7-carboxamide]: the half-inhibitory concentration (IC50) in assay [1] (Homo sapiens, Ramos) is less than 10 nM; in assay [2], less than 10 nM.

Turning to `C=CC(=O)N1CCCc2c(cccc2-c2c(F)cc(C(N)=O)c3[nH]c(C)c(Cl)c23)C1` (single isomer, unassigned) [Compound 25d], the half-maximal inhibitory concentration (IC50) in assay [1] is not below 100 nM; in assay [2] it was 10 to 100 nM.

Turning to `C=CC(=O)N1CCc2c(cccc2-c2c(F)cc(C(N)=O)c3[nH]c(C)c(F)c23)C1` (atropisomer, axis not shown) [Compound 20e, (S)-4-(2-acryloyl-1,2,3,4-tetrahydroisoquinolin-5-yl)-3,5-difluoro-2-methyl-1H-indole-7-carboxamide], the IC50 in assay [1] and in assay [2] was less than 10 nM in each case.

For the compound `C#CC(=O)N1CCC[C@@H](c2c(F)cc(C(N)=O)c3[nH]c(C)c(Cl)c23)C1` [Compound 8, (S)-3-chloro-5-fluoro-2-methyl-4-(1-propioloylpiperidin-3-yl)-1H-indole-7-carboxamide], the half-maximal inhibitory concentration (IC50) in assay [1] (Homo sapiens, Ramos) was less than 10 nM; in assay [2], less than 10 nM.

Consider `C=CC(=O)N1CCc2c(-c3c(F)cc(C(N)=O)c4[nH]c(C)c(Cl)c34)cccc2[C@@H]1C` (single isomer, unassigned) [Compound 22d], for which the 50% inhibitory concentration (IC50) in assay [1] and in assay [2] was not below 100 nM throughout.

As for `C=CC(=O)N[C@H]1CN(c2c(F)cc(C(N)=O)c3[nH]c(C)c(C)c23)CC[C@H]1F` [Compound 31, 4-((3S,4R)-3-acrylamido-4-fluoropiperidin-1-yl)-5-fluoro-2,3-dimethyl-1H-indole-7-carboxamide], the concentration for half-maximal inhibition (IC50) in assay [1] (Homo sapiens, Ramos) is 10 to 100 nM; in assay [2], 10 to 100 nM.

Turning to `C=CC(=O)N1CCc2c(cccc2-c2c(F)c(F)c(C(N)=O)c3[nH]c(C)c(Cl)c23)C1` (atropisomer, axis not shown) [Compound 21b, (R)-4-(2-acryloyl-1,2,3,4-tetrahydroisoquinolin-5-yl)-3-chloro-5,6-difluoro-2-methyl-1H-indole-7-carboxamide], the IC50 in assay [1] and in assay [2] was less than 10 nM throughout.

As to `C=CC(=O)N1CCCc2c(cccc2-c2c(F)cc(C(N)=O)c3[nH]c(C)c(Cl)c23)C1` (single isomer, unassigned) [Compound 25c], the IC50 is not below 100 nM in assay [1] (Homo sapiens, Ramos) and not below 100 nM in assay [2].

In the case of `C=CC(=O)N1CCC=C(c2c(F)c(F)c(C(N)=O)c3[nH]c(C)c(C#N)c23)C1` [Compound 5, 4-(1-acryloyl-1,2,5,6-tetrahydropyridin-3-yl)-3-cyano-5,6-difluoro-2-methyl-1H-indole-7-carboxamide], the IC50 was 10 to 100 nM in assay [1] (Homo sapiens, Ramos) and less than 10 nM in assay [2].

With `C=CC(=O)N1CC2CC1c1cccc(-c3c(F)cc(C(N)=O)c4[nH]c(C)c(Cl)c34)c12` (stereo not shown) [Compound 26, 4-(2-acryloyl-1,2,3,4-tetrahydro-1,4-methanoisoquinolin-5-yl)-3-chloro-5-fluoro-2-methyl-1H-indole-7-carboxamide], the 50% inhibitory concentration (IC50) in assay [1] (Homo sapiens, Ramos) is not below 100 nM; in assay [2] it was not below 100 nM.

Regarding `C=CC(=O)N1CCc2c(cccc2-c2c(F)cc(C(N)=O)c3[nH]c(C)c(C#N)c23)C1` (atropisomer, axis not shown) [Compound 20i, (R)-4-(2-acryloyl-1,2,3,4-tetrahydroisoquinolin-5-yl)-3-cyano-5-fluoro-2-methyl-1H-indole-7-carboxamide], the IC50 in assay [1] is 10 to 100 nM; in assay [2] it was less than 10 nM.

As to `C#CC(=O)N1CCC[C@H](c2c(F)cc(C(N)=O)c3[nH]c(C)c(Cl)c23)C1` [Compound 7, (R)-3-chloro-5-fluoro-2-methyl-4-(1-propioloylpiperidin-3-yl)-1H-indole-7-carboxamide], the IC50 is less than 10 nM in assay [1] (Homo sapiens, Ramos) and less than 10 nM in assay [2].

For the compound `C=CC(=O)N1CCCc2c(cccc2-c2c(F)cc(C(N)=O)c3[nH]c(C)c(F)c23)C1` [Compound 25e, 4-(2-acryloyl-2,3,4,5-tetrahydro-1H-benzo[c]azepin-6-yl)-3,5-difluoro-2-methyl-1H-indole-7-carboxamide], the IC50 is not below 100 nM in assay [1] (Homo sapiens, Ramos) and 10 to 100 nM in assay [2].

As to `C=CC(=O)N1CCc2c(cccc2-c2c(F)c(F)c(C(N)=O)c3[nH]c(C)c(Cl)c23)C1` [Compound 21a, 4-(2-acryloyl-1,2,3,4-tetrahydroisoquinolin-5-yl)-3-chloro-5,6-difluoro-2-methyl-1H-indole-7-carboxamide], the half-inhibitory concentration (IC50) in assay [1] is 10 to 100 nM; in assay [2], less than 10 nM.
